The text below walks through data of ChEMBL document CHEMBL1142107, “The effect of halide salts on the production of Gymnoascus reessii polyenylpyrroles” (J Nat Prod, 2007).

Data set [1] can be described thus: Cytotoxicity against NS1 cell line up to 15 uM. In kind it is cell-based. The note with it: mouse.
A short description of data set [2]: Cytotoxicity against NS1 cell line. The following applies: mouse. It is filed as cell-based.

Structures are written as SMILES.

For the compound `COc1cc(/C(C)=C/C=C/C=C/C=C/c2ccc[nH]2)oc(=O)c1C`, the Activity result in data set [1] was “Not Active”.
Consider `COc1cc(/C(C)=C/C=C/C=C/C=C/c2[nH]ccc2Cl)oc(=O)c1C`, for which the LD99 in data set [2] came to 0.034 µM.
The compound `COc1cc(/C(C)=C/C=C/C=C/C=C/c2[nH]ccc2Br)oc(=O)c1C` yielded an LD99 in data set [2] of 1.9 µM.
